Here are results for 51 molecules from ChEMBL document CHEMBL1201862, “PubChem BioAssay data set” (2004).

What is called EC50 is the concentration giving half of the maximal effect. What is called AC50 is the concentration at which the activity in the assay is half-maximal.

The structures appear in SMILES notation. Activity calls are given as the source filed them.

The target of assay [1] is T1, Heat shock factor protein 1 (Mus musculus, UniProt P38532).
T1 sequence (P38532 whole entry): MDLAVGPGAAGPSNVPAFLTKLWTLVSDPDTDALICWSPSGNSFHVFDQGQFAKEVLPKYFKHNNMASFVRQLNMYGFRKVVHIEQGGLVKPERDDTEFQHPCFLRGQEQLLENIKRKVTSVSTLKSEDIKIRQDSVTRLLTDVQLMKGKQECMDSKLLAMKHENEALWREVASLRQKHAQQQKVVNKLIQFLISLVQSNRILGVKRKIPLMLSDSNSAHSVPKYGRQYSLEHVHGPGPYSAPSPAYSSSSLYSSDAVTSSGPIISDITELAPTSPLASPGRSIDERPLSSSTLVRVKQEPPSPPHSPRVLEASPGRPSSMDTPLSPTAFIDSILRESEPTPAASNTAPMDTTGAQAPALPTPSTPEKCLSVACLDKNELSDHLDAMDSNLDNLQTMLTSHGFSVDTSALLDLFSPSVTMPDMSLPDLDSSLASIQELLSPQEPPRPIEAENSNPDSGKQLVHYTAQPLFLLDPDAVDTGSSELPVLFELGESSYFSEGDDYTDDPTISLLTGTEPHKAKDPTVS
Briefly: enhancement of HSF1-driven luciferase signal – cell-based, NIH3T3, luminescence, dose retest, confirmation (AID 435004).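 Further: stress induced by proteasome inhibitor MG132 added 30 min after compound; luciferase reporter driven by HSF1 response element in NIH3T3 cells; actives raise luminescence as potentiators of the MG132 stress response.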 The format is functional.

A short description of assay [2]: luciferase reporter signal suppression in cells – H4 neuroglioma cells, luminescence, dose response (AID 1990). It counts as functional, cell-based. (Reporter assays use an easily measured gene product as a stand-in for the process of interest.)
Assay [3] in a line: Luminescence Cell-Based Dose Response HTS to Identify Inhibitors of 5'UTR Stem-Loop Driven Prion Protein mRNA Translation in H4 Neuroglioblastoma Cells. [Related pubchem assays: 1827 (Project Summary), 1813 (Primary HTS)]. The format is functional.
Assay [4] in a line: alpha-synuclein stem-loop luciferase translation blockers – H4 neuroglioma cells, luminescence, confirmation (AID 1988). The format is functional, cell-based.
Assay [5] concerns the target Cytochrome P450 2C19 (Homo sapiens, UniProt P33261). Briefly: Cytochrome panel assay with activity outcomes. Panel member name: p450-cyp2c19 Compounds with AC50 equal or less than 10 uM are considered active. The format is functional. Particulars: read-out: AC50.
The nature of assay [6]: Trypanosoma cruzi growth suppression in host cells – NIH3T3 host cells, beta-gal luminescence, confirmation (AID 2044).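 Further: intracellular parasites grown in NIH/3T3 mouse fibroblasts as host cells; luminescent beta-galactosidase reporter signal from transgenic T. cruzi replicating inside host cells; inhibitors lower the luminescence signal.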 The format is functional, cell-based.
Assay [7] is described as follows: NIH3T3 cell viability loss – ATP luminescence, mouse fibroblasts, counter-screen, dose response (AID 2010).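 Further: cells exposed to compound for about 90 hours before reading.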 It counts as functional, cell-based. (A counterscreen serves to expose hits that act by an unwanted route or on another target.)
For assay [8], the system named is Streptococcus sp. 'group A'. Briefly: Streptococcus pyogenes SK(-)GAS viability under kanamycin – luminescence, BacTiterGlo, confirmation, counter-screen for streptokinase expression inhibitor project, dose response (AID 1900). The format is functional, organism-based.
Assay [9] has as its system Streptococcus. Briefly: GAS UMAA2166 growth inhibition – luminescence, BacTiterGlo, counter-screen for streptokinase expression inhibitor project, dose response (AID 1915).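 Further: potency for reduction of bacterial viability or growth.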 It counts as functional, organism-based.
Assay [10] addresses T1, Heat shock factor protein 1. Briefly: decrease of HSF1-responsive luciferase luminescence – cell-based, NIH3T3, dose retest, confirmation (AID 2382).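 Further: NIH3T3 fibroblasts with HSF1-driven luciferase reporter stressed by proteasome inhibitor MG132; luminescence from HSF1-driven luciferase expression after 8 hours of MG132 stress.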 It counts as functional.

Sequence of Cytochrome P450 2C19 (P33261 whole entry): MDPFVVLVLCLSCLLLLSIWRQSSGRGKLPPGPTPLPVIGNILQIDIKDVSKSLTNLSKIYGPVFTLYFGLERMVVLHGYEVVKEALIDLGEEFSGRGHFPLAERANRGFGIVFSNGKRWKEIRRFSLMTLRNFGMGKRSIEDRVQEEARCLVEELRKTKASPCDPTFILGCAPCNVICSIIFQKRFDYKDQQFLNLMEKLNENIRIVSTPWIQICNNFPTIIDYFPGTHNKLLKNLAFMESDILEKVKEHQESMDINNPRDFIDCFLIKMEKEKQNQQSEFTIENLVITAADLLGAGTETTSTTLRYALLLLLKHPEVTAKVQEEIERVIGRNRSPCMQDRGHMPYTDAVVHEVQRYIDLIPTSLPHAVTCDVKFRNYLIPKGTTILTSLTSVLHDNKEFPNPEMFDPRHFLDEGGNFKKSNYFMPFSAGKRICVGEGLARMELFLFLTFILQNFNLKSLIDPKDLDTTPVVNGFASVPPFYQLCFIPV

In the case of `CC(C)(CNC(=O)/C=C/c1ccc(F)cc1)CNC(=O)/C=C/c1ccc(F)cc1`, in [1], the concentration for a half-maximal effect (EC50) is 3.75 µM (active).
Take `Cc1cccc(C)c1NC(=O)COc1ccccc1C(=O)Nc1ccc(Br)cn1`: the EC50 was > 120 µM (not active) in assay [2], > 120 µM (not active) in assay [3] and 94.5 µM (active) in [4].
On to `Cc1cc(C)n(-c2cc(N3CCN(S(=O)(=O)c4ccc5ccccc5c4)CC3)ccc2[N+](=O)[O-])n1`, for which the EC50 is 12 µM (active) in assay [2], 26.7 µM (active) in assay [3] and 15.7 µM (active) in assay [4].
As for `COC(=O)c1sccc1NC(=O)c1cc(-c2ccc(C)cc2C)nc2ccccc12`, the concentration at half-maximal activity (AC50) in [5] was 3.55 µM (inconclusive).
On to `COc1ccc(SCCc2ccncc2)cc1`, for which the concentration giving a half-maximal response (EC50) in assay [6] is 1.1 µM (active); in assay [7] it was > 60 µM (not active).
`COc1ccc(NC(=O)CCc2nnc3ccc(NCc4ccc5c(c4)OCO5)nn23)cc1`: the EC50 in assay [1] was > 260 µM (inactive).
Consider `Cc1cccc2c1NC(C)CC2C` (configuration not stated), for which the EC50 in assay [6] is 4.83 µM (active); in assay [7], > 30 µM (not active).
For `CN1CCC(N(C)S(=O)(=O)c2ccc(C(C)(C)C)cc2)CC1`, the figures for the EC50 in assay [6] and in assay [7] were 0.249 µM (active) and 35.5 µM (active), respectively.
With `CCCN(CCC)S(=O)(=O)c1ccc(C(=O)Nc2nnc(COC)o2)cc1`, the EC50 in assay [8] was 5.99 µM (active); in assay [9] it was 4.59 µM (active).
In the case of `COc1ccc(C(C(=O)NC2CCCC2)N(C(=O)c2snc(-c3ccc(F)cc3)c2N)c2ccc(OC)cc2)cc1` (configuration not stated), the EC50 in [6] is 1.59 µM (active); in assay [7], > 60 µM (not active).
For the molecule `COc1ccc(C(=N)NOC(=O)c2ccc3c(c2)OCO3)cc1OC`, the values for the concentration for a half-maximal effect (EC50) in assay [6] and in assay [7] were 2.5 µM (active) and 27 µM (active), respectively.
Take `O=C(CN1CCN(C(c2ccccc2)c2ccccc2)CC1)N1CCOCC1`: the EC50 in [10] is > 195 µM (not active).
Take `CC(Nc1nc(-c2ccncc2)nc2ccccc12)c1ccccc1` (configuration not stated): the EC50 is 0.596 µM (active) in assay [6] and 4.4 µM (active) in [7].
Regarding `Cc1c(Cl)cccc1N=C(S)N(Cc1cccnc1)Cc1ccccc1Cl`, the EC50 was 0.516 µM (active) in assay [6] and > 60 µM (not active) in assay [7].
The matching figures for `COC(=O)C1=C(Nc2ccc(C)cc2)C=C(C)C(C(=O)OC)C1c1cccc(OC)c1` (configuration not stated): 2.26 µM (active) and 6.59 µM (active).
With `O=C(NCCCN1CCOCC1)c1ccc([N+](=O)[O-])cc1[N+](=O)[O-]`, the values for the EC50 in assay [6] and in assay [7] were 0.582 µM (active) and > 30 µM (not active), respectively.
As for `Cc1ccc(-n2nc3c(=O)n(CCCC(=O)NCc4ccc(Cl)cc4)nc(C)c3c2C)cc1`, the values for the EC50 in [2], in assay [3] and in [4] were 0.94 µM (active), > 120 µM (not active) and 19.5 µM (active), respectively.
As to `CCN(CC)S(=O)(=O)N1CCC(C(=O)N2CCC3(CC2)OCCO3)CC1`, the EC50 was > 120 µM (not active) in assay [2], 17.6 µM (active) in assay [3] and > 120 µM (not active) in assay [4].
On to `CN(CCc1ccccc1)C(=O)c1cc(COc2cccc(C(F)(F)F)c2)on1`, for which, in [1], the EC50 was > 260 µM (inactive).
In the case of `C=CCC(NCc1ccco1)c1ccc(OC)c(OC)c1` (configuration not stated), the EC50 in assay [1] was > 260 µM (inactive).
In the case of `O=C1NC(=O)N(c2ccccc2F)C(=O)/C1=C/NCCC1=CCCCC1`, the EC50 in assay [1] was > 260 µM (inactive).
As to `COc1ccc(-n2c(C)c(C)c3c(N)ncnc32)cc1`, the EC50 in assay [10] is 37.9 µM (active).
For the molecule `Cc1ccc(S(=O)(=O)NCCOc2nc(N3CCOCC3)nc(N3CCOCC3)n2)cc1`, the EC50 in assay [1] was > 260 µM (inactive).
With `CCOc1ccc(C2=Nn3c(nnc3-c3cccnc3)SC2)cc1`, the EC50 in assay [2] is 16 µM (active); in assay [3], > 120 µM (not active); in assay [4], 37.8 µM (active).
For `N#Cc1ccccc1Cn1cc(C(=O)c2ccccc2F)c2ccccc21`, the values for the EC50 in assay [2], in [3] and in assay [4] were 54.6 µM (active), > 120 µM (not active) and > 120 µM (not active), respectively.
Turning to `NC(=O)c1c(NC(=O)Cc2ccccc2)sc2c1CCN(Cc1ccccc1)C2`, in assay [1], the EC50 was > 260 µM (inactive).
Take `O=c1c(-c2ccccc2)nc2cnc(N3CCNCC3)nc2n1C1CC1`: the concentration at half-maximal activity (AC50) in assay [5] is 39.8 µM (inconclusive).
In the case of `CCC1CCCCN1S(=O)(=O)c1ccc(C(=O)Nc2nnc(C3CC3)o2)cc1` (configuration not stated), the results for the EC50 in [8] and in assay [9] were 4.34 µM (active) and 7.56 µM (active), respectively.
As to `Cc1ccc(C(C)C)c(OCC(=O)Nc2ccc3c(c2)nc(CCN2CCCCC2)n3C)c1`, the EC50 in assay [2] is 10 µM (active); in assay [3] it was 35.8 µM (active); in assay [4], 11.4 µM (active).
As for `Cc1ccc(-c2csc3ncnc(-n4nnc5ccccc54)c23)cc1C`, the half-maximal effective concentration (EC50) in assay [2] is 15 µM (active); in assay [3], > 120 µM (not active); in [4], > 60 µM (not active).
For the molecule `CC(=O)O[C@@]12CO[C@@H]1C[C@H](O)[C@@]1(C)C(=O)[C@H](O)C3=C(C)[C@@H](OC(=O)[C@H](O)[C@@H](NC(=O)OC(C)(C)C)c4ccccc4)C[C@](O)([C@@H](OC(=O)c4ccccc4)[C@H]21)C3(C)C`, the concentration for a half-maximal effect (EC50) in [6] was < 0.1 µM (active).
With `COc1ccc(CCNc2ncnc3c2c(C)c(C)n3CCO)cc1OC`, the EC50 in [1] was > 260 µM (inactive).
Turning to `CCOC(=O)N1CCN(C(=O)c2ccc3nc4ccc(Cl)cc4c(=O)n3c2)CC1`, the EC50 in assay [2] was > 120 µM (not active); in [3], 37.5 µM (active); in assay [4] it was 7.83 µM (active).
Regarding `CC1CC(C)(C)N=C(S)N1CCC(=O)NCc1ccc(Cl)cc1` (configuration not stated), the half-maximal effective concentration (EC50) is > 120 µM (not active) in [2], 33.7 µM (active) in [3] and > 120 µM (not active) in [4].
`O=C(Nc1cccc(-c2nc3ncccc3o2)c1)c1ccco1`: the EC50 was 0.249 µM (active) in assay [6] and > 60 µM (not active) in assay [7].
For the molecule `CCCCCn1c(SCc2cccc(C)c2)nc2c1c(=O)[nH]c(=O)n2C`, in assay [1], the EC50 was > 260 µM (inactive).
For `CCOc1cc(/C=C2\C(=N)N3N=C(C)SC3=NC2=O)ccc1OCCOc1ccccc1`, the EC50 in [10] is reported as > 195 µM (not active).
Take `Cc1ccc(OCC(O)CNCc2ccc(F)cc2)cc1` (configuration not stated): the EC50 in [6] is 0.321 µM (active); in assay [7], > 60 µM (not active).
Regarding `Cc1noc(C)c1-c1cc(Nc2ccccc2)ncn1`, in assay [5], the AC50 was 20 µM (inconclusive).
For `Cc1cc(NC(=O)CCC(=O)N(CC(=O)NC2CCCC2)Cc2cccs2)no1`, the EC50 in [1] was > 260 µM (inactive).
`O=C1Nc2ccccc2N(O)N1c1cc(-c2ccccc2Cl)no1`: the EC50 in [2] is 31.6 µM (active); in assay [3], 70.3 µM (active); in assay [4] it was > 120 µM (not active).
For `COc1ccc(OCCN2C(=O)c3ccccc3C2=O)cc1`, the EC50 in [10] is > 195 µM (not active).
For `N#Cc1cccc(-c2nc(NCCN3CCOCC3)c3ccccc3n2)c1`, the AC50 in [5] is 15.8 µM (inconclusive).
The same measure, in the same setting: as for `COc1cc2c(c(O)c1OC)C(=O)C(OC)CCC2` (configuration not stated), the figure is 6.31 µM (inconclusive).
For `CC1CN(C(=O)c2ccccc2)/C(=N/c2cccc(S(=O)(=O)N(C)C)c2)S1` (configuration not stated), the concentration giving a half-maximal response (EC50) in assay [2], in assay [3] and in assay [4] was > 120 µM (not active) throughout.
`Cn1cc(C(=O)N/N=C/c2cc(Br)cs2)c2ccccc21`: in [1], the EC50 is 42.9 µM (active).
In the case of `COc1cc(O)cc2c1C(=O)OC(C)CCCC(=O)CCC/C=C\2` (configuration not stated), the EC50 in assay [1] is > 260 µM (inactive).
Regarding `COc1ccccc1N(CC(=O)N/N=C(\C)c1ccccc1O)S(=O)(=O)c1ccc(C)cc1`, the EC50 is 4.7 µM (active) in assay [6] and 5.18 µM (active) in assay [7].
In the case of `CN1CCN(/N=C/c2cccc(Cl)c2Cl)CC1`, the EC50 in assay [6] is 0.321 µM (active); in assay [7] it was > 60 µM (not active).
As for `O=C(Cc1cccs1)N/N=C/c1ccco1`, the concentration giving a half-maximal response (EC50) in assay [8] was 2.88 µM (active); in assay [9], 2.18 µM (active).
Consider `C[C@H]1[C@H](C)CC[C@]2(C(=O)O)CC[C@]3(C)C(=CC[C@@H]4[C@@]5(C)C[C@@H](O)[C@H](O)C(C)(C)[C@@H]5CC[C@]43C)[C@H]12` [COROSOLIC ACID], for which the figures for the concentration giving a half-maximal response (EC50) in assay [8] and in assay [9] were 2.92 µM (active) and 2.79 µM (active), respectively.
